These results are taken from patent US6632832B1 (Dabur Research Foundation, priority 2002, dated 2003).

Values after ≈ are worked out from the molar mass of the structure shown.

One experiment has as its system B16F10 (melanoma). Put plainly: MTT cytotoxicity assay, 72 hours. Format: cell-based, human. The settings on record: B16.F10 (Melanoma), 72 h MTT, Table 2. The method, then: (§1) After 72 hours, the assay was terminated and percent cyotoxicities calculated.
On the technique in general: Formazan colour is commonly taken as a measure of viable cells.

Another experiment concerns PTC (colon). Put plainly: MTT cytotoxicity assay, 72 hours. Format: cell-based, human. The settings on record: PTC (Colon), 72 h MTT, Table 2. The method, then: as §1
In another experiment the test system is PA1 (ovary). Kind of experiment: MTT cytotoxicity assay, 72 hours. The settings on record: PA-1 (Ovary), 72 h MTT, Table 2. Format: cell-based, human. On the procedure:
as §1

The next experiment concerns MiaPaCa.2 (pancreas). Kind of experiment: MTT cytotoxicity assay, 72 hours. It counts as cell-based, human. The settings on record: MiaPaCa.2 (Pancreas), 72 h MTT, Table 2. On the procedure:
as §1

Another experiment concerns KB (oral). Kind of experiment: MTT cytotoxicity assay, 72 hours. Format: cell-based, human. The settings on record: KB (Oral), 72 h MTT, Table 2. On the procedure: as §1
The next experiment relates to U87.MG (glioblastoma). Put plainly: MTT cytotoxicity assay, 72 hours. Format: cell-based, human. The settings on record: U87MG (Glioblastoma), 72 h MTT, Table 2. On the procedure: as §1
For the next experiment, the system named is L132 (lung). Put plainly: MTT cytotoxicity assay, 72 hours. The settings on record: L132 (Lung), 72 h MTT, Table 2. It counts as cell-based, human. The method, then:
as §1

Another experiment relates to HBL100 (breast). Put plainly: MTT cytotoxicity assay, 72 hours. Format: cell-based, human. The settings on record: HBL100 (Breast), 72 h MTT, Table 2. The method, then:
as §1

The subject of a further experiment is MOLT4 (leukemia). Kind of experiment: MTT cytotoxicity assay, 72 hours. It counts as cell-based, human. The settings on record: MOLT-4 (Leukemia), 72 h MTT, Table 2. The method, then: as §1
The subject of a further experiment is β-receptor. The settings on record: preclinical studies; cited from earlier work.

Take `COc1ccccc1OCCNC[C@@H](O)COc1cccc2[nH]c3ccccc3c12` (single isomer, unassigned) [R(+) isomer]: the ED50 with B16F10 (melanoma) stood at 10.5 ± 1.6 mg/L (≈ 25.8 µM); in the experiment on PTC (colon), 7.0 ± 0.4 mg/L (≈ 17.2 µM); in the experiment on PA1 (ovary), 10.0 ± 1.5 mg/L (≈ 24.6 µM); in the experiment with MiaPaCa.2 (pancreas) it was 27.0 ± 2.7 mg/L (≈ 66.4 µM); with KB (oral), 12.0 ± 2.6 mg/L (≈ 29.5 µM); in the experiment with U87.MG (glioblastoma), 14.5 ± 2.9 mg/L (≈ 35.7 µM). In addition, the ED50 with L132 (lung) was 16.0 ± 3.1 mg/L (≈ 39.4 µM); in the experiment on HBL100 (breast) it was 32.8 ± 3.7 mg/L (≈ 80.7 µM); in the experiment on MOLT4 (leukemia), 12.0 ± 1.6 mg/L (≈ 29.5 µM).

Turning to `COc1ccccc1OCCNC[C@H](O)COc1cccc2[nH]c3ccccc3c12` (single isomer, unassigned) [S(−) isomer], the ED50 is 11.4 ± 2.1 mg/L (≈ 28 µM) with B16F10 (melanoma); 7.5 ± 0.4 mg/L (≈ 18.5 µM) in the experiment on PTC (colon); 13.0 ± 1.3 mg/L (≈ 32 µM) with PA1 (ovary); 33.0 ± 3.9 mg/L (≈ 81.2 µM) in the experiment with MiaPaCa.2 (pancreas); 19.0 ± 3.4 mg/L (≈ 46.7 µM) in the experiment with KB (oral); 18.5 ± 2.1 mg/L (≈ 45.5 µM) with U87.MG (glioblastoma). In addition, the ED50 in the experiment on L132 (lung) came out at 22.6 ± 3.8 mg/L (≈ 55.6 µM); in the experiment with HBL100 (breast), 33.5 ± 4.2 mg/L (≈ 82.4 µM); in the experiment with MOLT4 (leukemia), 17.0 ± 2.5 mg/L (≈ 41.8 µM).

Regarding `COc1cc(O)ccc1OCCNCC(O)COc1cccc2[nH]c3ccccc3c12` (stereo not shown) [4′-hydroxyphenyl metabolite], the “potency for β-blockade relative to carvedilol” value in the experiment with β-receptor was “approximately 13 times”.
